Results as given in patent US20090099502A1, “Microneedle Device And Transdermal Administration Device Provided With Microneedles” (HISAMITSU PHARMACEUTICAL CO., INC., priority 2006, published 2009).
Entries after “also recorded” stand apart in the source; their conditions may differ. Counter-ions that a name gives are not always drawn.

Columns and labels:
[1] = test system: hairless rat skin
Text: (§1) A piece of foam tape (#9773, 7.84 cm^2) of 3M Company was pasted on the back side of the microneedle substrate in such a way that the adhesive layer of the tape would face the skin. The projecting ends of the tape were attached to the skin to bring the microneedle side of the microneedle substrate in close contact with the skin. To start the experiment, the microneedle substrate was placed on the skin and pressure applied (2 kg/patch for 5 seconds) on the substrate with a finger.
(§2) Microneedles (800 piles/patch) were coated all over their surfaces with 30 μl/patch one of the coating carriers, and dried at room temperature for 12 h for fixing. Skin removed from hairless rats was pierced with microneedles coated with the drug formulations, including those having their free forms, and samples were removed periodically. Phosphate buffer solution (PBS) was used for the receptor layer. The receptor solution sample, sampled at different time points, and acetonitrile were mixed at 1:1 ratio, stirred, centrifuged (15,000 rpm, 5° C., 5 minutes), then the supernatant was recovered, and its drug content measured by HPLC.
Animal species: Hairless rat (n=3)

[2] = test system: hairless rat skin; assay: Skin permeation tests with a drug in its free and salt forms using hairless rats (Example 7); details: both the fumarate and the free form, PVA117 coating
Text: as §1, §2
Animal species: Hairless rat (n=3)

[3] = whether in the free or the salt form; cited from earlier work
[4] = test system: hairless rat skin; assay: Skin permeation test of granisetron hydrochloride, blister-type drug product (Example 5); type: in vitro ADME; details: in examples 4 and 5
Experimental: In this experiment, the coating carrier was prepared for the entire surface of microneedles by using only 5 wt. % polyvinyl alcohol (PVA117), and the microneedles (800 pile/patch) were coated all over the surface with 30 μl/patch and dried for 12 h at room temperature for fixing. After piercing the skin with the microneedles, […] 32 wt. % aqueous solution of granisetron hydrochloride, 30 μl, was applied through the through-holes (openings) on the microneedle substrate. There were two control groups. In one of these, the microneedles were not given any coating and 30 μl of the drug solution alone was applied through the through-holes. In the other control group, an aqueous solution containing 5 wt. % of polyvinyl alcohol and 32 wt. % of granisetron hydrochloride was prepared, as before, as the coating carrier, and the microneedles (800 piles/patch) were coated all over the surface with 15 μl/patch of this coating carrier.
Skin was then removed from the trunk of a hairless rat and fitted to a vertical acrylic cell (2.54 cm^2) with the dermis side facing the receptor layer, and the whole assembly was placed in a constant temperature chamber set at 37° C. […] The drug content of the receptor solution obtained at each time of sampling was measured by HPLC (Excitation: 298 nm, fluorescence: 353 nm). […]

SMILES | maximum flux, salt form compared with free form [1] | maximum flux, Free form ([1]; hairless, rat, 16 wt. %) | maximum flux, Salt ([1]; hairless, rat, 16 wt. %) | skin permeability [2] | amount of drug permeation ([1]; hairless, rat, 16 wt. %) | solubility in water [3] | skin permeability [4]
CC(C)NCC(O)COc1ccc(COCCOC(C)C)cc1 (stereo not drawn) [Bisoprolol, bisoprolol] | higher maximum flux in their salt form than in their free form | 60 μg/cm^2/hr | 90 μg/cm^2/hr | good skin permeability |  |  | 
CCCN[C@H]1CCc2nc(N)sc2C1 [Pramipexol, pramipexol] | higher maximum flux in their salt form than in their free form | 100 μg/cm^2/hr | 180 μg/cm^2/hr |  |  |  | 
CCCN1C[C@H](CSC)C[C@@H]2c3cccc4[nH]cc(c34)C[C@H]21 [Pergolide, pergolide] |  | 0.1< μg/cm^2/hr | 0.1< μg/cm^2/hr |  | about 1 μg | almost no solubility in water; also recorded: extremely low solubility | 
CN1C2CCCC1CC(NC(=O)c1nn(C)c3ccccc13)C2 (stereo not drawn) [granisetron hydrochloride] |  |  |  |  |  |  | good skin permeability
